The numbers were not newly measured in patent US20050142123A1, “Water-dispersible coenzyme q10 dry powders” (priority 2002, published 2005), which cites them from elsewhere.

The structures appear in SMILES notation.

The conditions of series [1]: administered orally.

Take `COC1=C(OC)C(=O)C(CC=C(C)CCC=C(C)CCC=C(C)CCC=C(C)CCC=C(C)CCC=C(C)CCC=C(C)CCC=C(C)CCC=C(C)CCC=C(C)C)=C(C)C1=O` [Coenzyme Q-10, 6-Decaprenyl-2,3-dimethoxy-5-methyl-1,4-benzoquinone]: the solubility in water result was “practically insoluble in water”. The bioavailability entry in series [1] was “poor”.
